From patent publication EP0221541A2, “Quinolonecarboxylic acid derivatives and their preparation” (KYORIN PHARMACEUTICAL CO., LTD., priority 1985, dated 1987)
Counter-ions that a name gives are not always drawn. Like-named read-outs stand apart in the source and are kept apart here.

Key:
Type in all cases: cell-based
S. pyogenes IID 692 = test: MIC, antibacterial spectrum (aerobic bacteria); settings: Streptococcus pyogenes, IID692; S. pyogenes IID 692, Gram +, 10^6 cells/ml, aerobic; read-out: MIC
P. mirabilis IID 994 = test: MIC, antibacterial spectrum (aerobic bacteria); settings: Proteus mirabilis, IID994; P. mirabilis IID 994, Gram -, 10^6 cells/ml, aerobic; read-out: MIC
[1] = system: Pseudomonas aeruginosa V-1; test: MIC, antibacterial spectrum (aerobic bacteria); settings: V1
K. pneumoniae 1-220S = test: MIC, antibacterial spectrum (aerobic bacteria); settings: Klebsiella pneumoniae, 1220S; K. pneumoniae 1-220S, Gram -, 10^6 cells/ml, aerobic; read-out: MIC
B. fragilis 0558 = test: MIC, antibacterial spectrum (anaerobic bacteria); settings: Bacteroides fragilis; B. fragilis 0558, Gram -, 10^6 cells/ml, anaerobic; read-out: MIC
[2] = system: Fusobacterium necrophorum S-45; test: MIC, antibacterial spectrum (anaerobic bacteria); settings: S45; Fusobacterium necrophorum S-45, Gram -, 10^6 cells/ml, anaerobic; read-out: MIC
[3] = system: Enterobacter cloacae IID 977; test: MIC, antibacterial spectrum (aerobic bacteria); settings: IID977
S. marcescens GN 7577 = test: MIC, antibacterial spectrum (aerobic bacteria); settings: Serratia marcescens, GN7577; S. marcescens GN 7577, Gram -, 10^6 cells/ml, aerobic; read-out: MIC
P. aeruginosa IID 1210 = test: MIC, antibacterial spectrum (aerobic bacteria); settings: Pseudomonas aeruginosa, IID1210; P. aeruginosa IID 1210, Gram -, 10^6 cells/ml, aerobic; read-out: MIC
C. ramosum = test: MIC, antibacterial spectrum (anaerobic bacteria); settings: Thomasclavelia ramosa; C. ramosum, Gram +, 10^6 cells/ml, anaerobic; read-out: MIC
[4] = system: Bacillus subtilis PCI 219; test: MIC, antibacterial spectrum (aerobic bacteria); settings: PCI219; Bacillus subtilis PCI 219, Gram +, 10^6 cells/ml, aerobic; read-out: MIC
Pst. micros UPI 5464-1 = test: MIC, antibacterial spectrum (anaerobic bacteria); settings: Parvimonas micra, UPI54641, Pst. micros UPI 5464-1, Gram +, 10^6 cells/ml
C. perfringens KYA 13123 = test: microbe, parasite or virus in culture; settings: Clostridium perfringens, KYA13123
[5] = system: Clostridium difficile I-E; test: MIC, antibacterial spectrum (anaerobic bacteria); settings: Clostridioides difficile, Gram +, 10^6 cells/ml
[6] = system: S. pyogenes IID 689 (S-8); test: MIC, antibacterial spectrum (aerobic bacteria); settings: Streptococcus pyogenes, IID689; S. pyogenes IID 689 (S-8), Gram +, 10^6 cells/ml, aerobic; read-out: MIC
B. fragilis 25285 = test: MIC, antibacterial spectrum (anaerobic bacteria); settings: Bacteroides fragilis; B. fragilis 25285, Gram -, 10^6 cells/ml, anaerobic; read-out: MIC
[7] = system: Propionibacterium acens 11828; test: MIC, antibacterial spectrum (anaerobic bacteria); settings: Propionibacterium acens 11828, Gram +, 10^6 cells/ml, anaerobic; read-out: MIC
E. faecalis IID 682 = test: MIC, antibacterial spectrum (aerobic bacteria); settings: Enterococcus faecalis, IID682; E. faecalis IID 682, Gram +, 10^6 cells/ml, aerobic; read-out: MIC
[8] = system: Serratia marcescens IID 618; test: MIC, antibacterial spectrum (aerobic bacteria); settings: IID618
E. coli ML 4707 = test: MIC, antibacterial spectrum (aerobic bacteria); settings: Escherichia coli, ML4707; E. coli ML 4707, Gram -, 10^6 cells/ml, aerobic; read-out: MIC
[9] = system: Bacteroides fragilis GM 7000; test: MIC, antibacterial spectrum (anaerobic bacteria); settings: GM7000; Bacteroides fragilis GM 7000, Gram -, 10^6 cells/ml, anaerobic; read-out: MIC
S. epidermidis IID 866 = test: MIC, antibacterial spectrum (aerobic bacteria); settings: Staphylococcus epidermidis, IID866; S. epidermidis IID 866, Gram +, 10^6 cells/ml, aerobic; read-out: MIC
[10] = system: Acinetobacter anitratus IID 876; test: MIC, antibacterial spectrum (aerobic bacteria); settings: Acinetobacter calcoaceticus, IID876; Acinetobacter anitratus IID 876, Gram -, 10^6 cells/ml, aerobic; read-out: MIC
[11] = system: Yersinia enterocolitica IID 981; test: MIC, antibacterial spectrum (aerobic bacteria); settings: IID981; Yersinia enterocolitica IID 981, Gram -, 10^6 cells/ml, aerobic; read-out: MIC
[12] = system: S. aureus IID 670 (Terajima); test: MIC, antibacterial spectrum (aerobic bacteria); settings: Staphylococcus aureus, IID670; S. aureus IID 670 (Terajima), Gram +, 10^6 cells/ml, aerobic; read-out: MIC
[13] = system: Proteus vulgaris IFO 3167; test: MIC, antibacterial spectrum (aerobic bacteria); settings: IFO3167; Proteus vulgaris IFO 3167, Gram -, 10^6 cells/ml, aerobic; read-out: MIC
[14] = system: Salmonella enteritidis IID 604; test: MIC, antibacterial spectrum (aerobic bacteria); settings: Salmonella enterica; Salmonella enteritidis IID 604, Gram -, 10^6 cells/ml, aerobic; read-out: MIC
[15] = system: Eubacterium lentum GAI 5242; test: MIC, antibacterial spectrum (anaerobic bacteria); settings: Eggerthella lenta, GAI5242; Eubacterium lentum GAI 5242, Gram +, 10^6 cells/ml, anaerobic; read-out: MIC
[16] = system: Citrobacter freundii IID 976; test: MIC, antibacterial spectrum (aerobic bacteria); settings: IID976; Citrobacter freundii IID 976, Gram -, 10^6 cells/ml, aerobic; read-out: MIC
[17] = Pseudomonas aeruginosa V-1, Gram -, 10^6 cells/ml, aerobic, read-out: MIC
[18] = Enterobacter cloacae IID 977, Gram -, 10^6 cells/ml, aerobic, read-out: MIC
[19] = Serratia marcescens IID 618, Gram -, 10^6 cells/ml, aerobic, read-out: MIC

Measured: MIC

O=C(O)c1cn(C2CC2)c2c(Cl)c(N3CCC(CNCCO)C3)c(F)cc2c1=O (stereo not drawn) [Exp. 3, 8-Chloro-1-cyclopropyl-6-fluoro-1,4-dihydro-7-(3-(2-hydroxyethylaminomethyl)-1-pyrrolidinyl]-4-oxo-3-quinolinecarboxylic acid]
0.025 µg/mL: [12] | [13]
0.2 µg/mL: [1]; [17] | B. fragilis 0558 | [5] | B. fragilis 25285 | [8]; [19] | [15]
0.39 µg/mL: C. ramosum | [9]
0.05 µg/mL: P. mirabilis IID 994 | C. perfringens KYA 13123 | E. coli ML 4707 | [16]
0.0125 µg/mL: S. pyogenes IID 692 | [4] | [6] | S. epidermidis IID 866
0.78 µg/mL: [7]
0.1 µg/mL: K. pneumoniae 1-220S | [2] | [3]; [18] | Pst. micros UPI 5464-1 | E. faecalis IID 682 | [10] | [11] | [14]
1.56 µg/mL: S. marcescens GN 7577 | P. aeruginosa IID 1210

O=C(O)c1cn(C2CC2)c2cc(N3CCC(CNCCO)C3)c(F)cc2c1=O (stereo not drawn) [Exp. 2, l-Cyclopropyl-6-fluoro-l,4-dihydro-7-[3-(2-hydroxyethylaminomethyl)-l-pyrrolidinyl]-4-oxo-3-quinolinecarboxylic acid hydrochloride]
0.39 µg/mL: P. mirabilis IID 994 | [14] | [16]
6.25 µg/mL: P. aeruginosa IID 1210
1.56 µg/mL: [1]; Pseudomonas aeruginosa | [3]; Enterobacter cloacae | C. perfringens KYA 13123 | [8]; Serratia marcescens
0.1 µg/mL: S. pyogenes IID 692 | [6] | S. epidermidis IID 866
0.78 µg/mL: K. pneumoniae 1-220S | [2] | E. faecalis IID 682 | [11]
25 µg/mL: S. marcescens GN 7577 | C. ramosum | [5]
100 µg/mL: [9]
0.2 µg/mL: E. coli ML 4707 | [12] | [13]
3.13 µg/mL: Pst. micros UPI 5464-1 | [7] | [10] | [15]
50 µg/mL: B. fragilis 0558 | B. fragilis 25285
≤ 0.05 µg/mL: [4]

O=C(O)c1cn(C2CC2)c2c(F)c(N3CCC(CNCCO)C3)c(F)cc2c1=O (stereo not drawn) [Exp. 1, 1-Cyclopropyl-6,8-difluoro-1,4-dihydro-7-[3-(2-hydroxyethylaminomethyl)-1-pyrrolidinyl]-4-oxo-3-quinolinecarboxylic acid]
0.78 µg/mL: [1]; [17] | B. fragilis 0558 | C. ramosum | [5] | [7] | [15]
0.0125 µg/mL: [4]
0.025 µg/mL: [6] | S. epidermidis IID 866
0.1 µg/mL: E. faecalis IID 682 | [14]
0.05 µg/mL: S. pyogenes IID 692 | P. mirabilis IID 994 | E. coli ML 4707 | [12] | [13] | [16]
1.56 µg/mL: P. aeruginosa IID 1210 | B. fragilis 25285 | [9]
3.13 µg/mL: S. marcescens GN 7577
0.39 µg/mL: Pst. micros UPI 5464-1 | [8]; [19]
0.2 µg/mL: K. pneumoniae 1-220S | [2] | [3]; [18] | C. perfringens KYA 13123 | [10] | [11]
